In brackets after ≈: the same amount, converted by molar mass.
Columns and labels:
[1] = test system: Asper-gillus fumi-gatus; test: Antifungal in vitro activity (MIC), Kimmig medium; type: cell-based; conditions: Aspergillus fumigatus, inoculum 5 x 10³ Keime/ml, 28 °C, 96 h, read-out: MHK-Werte (minimale Hemmkonzentration)
Description: (§1) Die in-vitro-Prüfungen wurden mit Keiminokula von durchschnittlich 5 x 10³ Keimen/ml Substrat durchgeführt. Als Nährmedium diente Kimmig-Medium.
(§2) Die Bebrütungstemperatur betrug 28 °C, die Bebrütungsdauer lag bei 24 bis 96 Stunden bei Hefen und 96 Stunden bei Dermatophyten und Schimmelpilzen.

[2] = test system: Micro-sporum canis; test: Antifungal in vitro activity (MIC), Kimmig medium; type: cell-based; conditions: Microsporum canis, inoculum 5 x 10³ Keime/ml, 28 °C, 96 h, read-out: MHK-Werte (minimale Hemmkonzentration)
Description: as §1, §2

[3] = test system: Tricho-phyton mentagr.; test: Antifungal in vitro activity (MIC), Kimmig medium; type: cell-based; conditions: Trichophyton mentagrophytes, inoculum 5 x 10³ Keime/ml, 28 °C, 96 h, read-out: MHK-Werte (minimale Hemmkonzentration)
Description: as §1, §2

[4] = test system: Candida albi-cans und sp.; test: Antifungal in vitro activity (MIC), Kimmig medium; type: cell-based, Candida albicans; conditions: inoculum 5 x 10³ Keime/ml, 28 °C, 24 to 96 h, read-out: MHK-Werte (minimale Hemmkonzentration)
Description: as §1, §2

[5] = test system: Toru-lopsis gla-brata; test: Antifungal in vitro activity (MIC), Kimmig medium; type: cell-based, Torulopsis glabrata; conditions: Nakaseomyces glabratus, inoculum 5 x 10³ Keime/ml, 28 °C, 24 to 96 h, read-out: MHK-Werte (minimale Hemmkonzentration)
Description: as §1, §2

[6] = test system: Candida-Zellen; test: Antifungal in vivo activity (oral) in mouse candidiasis; set-up: species or system Mäuse vom Typ SPF-CF₁; conditions: 2 x 5,0 mg/kg per day for 5 days; for Wirkung: mice infected i.v. with 1 x 10⁶ Candida cells, survivors on day 6 p.i.; for Wirkung (in words): mouse candidiasis
Description: Mäuse vom Typ SPF-CF₁ werden intravenös mit 1 x 10⁶ logarithmisch wachsenden Candida-Zellen, die in physiologischer Kochsalzlösung suspendiert wurden, infiziert, Gleichzeitig mit der Infektion werden die Tiere mit jeweils 5,0 mg/kg Körpergewicht der Präparate oral behandelt.
Die Behandlung wird 5 Tage fortgesetzt; die Tagesdosis beträgt jeweils 2 mal 5,0 mg/kg Körpergewicht.
Unbehandelte Tiere sterben 3 bis 6 Tage post infektionem. Die Überlebensrate am 6.Tag post infektionem beträgt bei unbehandelten Kontrolltieren etwa 5 %.

[7] = test system: Trichophyton mentagrophytes; test: Antimicrobial in vivo activity (oral) in experimental guinea pig trichophytosis; set-up: species or system Meerschweinchen der Rasse Pirbright-white; key to Wirkung: +++++: = sehr gute Wirkung = keine Infektionszeichen am 12. bis 15. Tag p.i.; ++++: = gute Wirkung = geringe Rötung, vereinzelt Schuppen; +++: = Wirkung = Rötung, Schuppen ohne Haarausfall; ++: = schwache Wirkung = Rötung, Schuppen, Haaraus-fall; +: = Spurwirkung = flächiger Haarausfall, entzündliche Hautreaktion; k.w.: = keine Wirkung = kein Unterschied zur unbehandelten Kontrolle; conditions: 1 x 2,5 mg/kg per day for 10 days; for Wirkung (in words): guinea pig trichophytosis; for Wirkung: guinea pigs infected on the back with Trichophyton mentagrophytes, signs of infection day 12 to 15 p.i.
Description: Weiße Meerschweinchen der Rasse Pirbright-white werden auf dem geschorenen, nicht skarifizierten Rücken mit einer Mikro- und Makrokonidien-Suspension von Trichophyton mentagrophytes infiziert.
Die infizierten Tiere werden beginnend mit dem Tag der Infektion 1 x täglich mit 2,5 mg/kg Körpergewicht der Präparate oral behandelt. Die Behandlung wird 10 Tage fortgesetzt; die Tagesdosis beträgt jeweils 1 mal 2,5 mg/kg Körpergewicht.
Bei unbehandelten Tieren entwickelt sich innerhalb von 12 Tagen p.i. das typische Bild einer Dermatophytose mit Rötung, Schuppung und Haarausfall bis zum totalen Integument-Defekt an der Infektionsstelle.

MIC [1] | MIC [2] | MIC [3] | MIC [4] | MIC [5] | SMILES | Wirkung [6] | Wirkung (in words) [6] | Wirkung (in words) [7] | Wirkung [7]
64 µg/mL (≈ 231 µM) | 32 µg/mL (≈ 116 µM) | 32 µg/mL (≈ 116 µM) | 16 to 32 µg/mL (≈ 57.8 to 116 µM) | 64 µg/mL (≈ 231 µM) | CC(C#N)C(O)(Cn1cncn1)c1ccc(Cl)cc1 (stereo not drawn) [(A), 3-(4-Chlorphenyl)-3-hydroxy-2-methyl-4-(1,2,4-triazol-1-yl)-butyronitril] | k.w. | keine Wirkung | keine Wirkung | k.w.
64 µg/mL (≈ 220 µM) | 4 to 8 µg/mL (≈ 13.8 to 27.5 µM) | 4 to 8 µg/mL (≈ 13.8 to 27.5 µM) | 4 to 8 µg/mL (≈ 13.8 to 27.5 µM) | 32 to 64 µg/mL (≈ 110 to 220 µM) | CC(C)(C#N)C(O)(Cn1cncn1)c1ccc(Cl)cc1 (stereo not drawn) [(I), 3-(4-Chlorphenyl)-2,2-dimethyl-3-hydroxy-4-(1,2,4-triazol-1-yl)-butyronitril] | ++++ (= gute Wirkung = 80 % Überlebende am 6.Tag.p.i.) | gute Wirkung | gute Wirkung | ++++

Source: patent EP0313981A2, “3-(4-Chlorphenyl)-2,2-dimethyl-3-hydroxy-4-(1,2,4-triazol-1-yl)-butyronitril” (BAYER AG, priority 1987, dated 1989)
